Data taken from US9018388B2, “Pesticidal compositions and processes related thereto” (Dow AgroSciences LLC, priority 2012, dated 2015).
Read-outs that look alike come from different tables or passages of the source.

Columns and labels:
[1] = test system: Beet Armyworm (BAW) (Spodoptera exigua); assay: Bioassay on beet armyworm (BAW), 128-well diet tray assay; assay type: in vivo; details: Spodoptera exigua, read-out: % Mortality BAW 50 μg/cm^2
Procedure: (§1) Bioassays on Beet Armyworm (“BAW”) and Corn Earworm (“CEW”)
(§2) Certain molecules disclosed in this document were tested against BAW and CEW using procedures described in the following examples. In the reporting of the results, the “BAW & CEW Rating Table” was used (See Table Section).
Bioassays on BAW (Spodoptera exigua)
Bioassays on BAW were conducted using a 128-well diet tray assay. One to five second instar BAW larvae were placed in each well (3 mL) of the diet tray that had been previously filled with 1 mL of artificial diet to which 50 μg/cm^2 of the test compound (dissolved in 50 μL of 90:10 acetone-water mixture) had been applied (to each of eight wells) and then allowed to dry. Trays were covered with a clear self-adhesive cover and held at 25° C., 14:10 light-dark for five to seven days. Percent mortality was recorded for the larvae in each well; activity in the eight wells was then averaged. The results are indicated in the table entitled “Table 5: Biological Results” (See Table Section).

[2] = test system: Corn Earworm (CEW) (Helicoverpa zea); assay: Bioassay on corn earworm (CEW), 128-well diet tray assay; assay type: in vivo; details: Helicoverpa zea, read-out: % Mortality CEW 50 μg/cm^2
Procedure: as §1, §2
Bioassays on CEW (Helicoverpa zea)
Bioassays on CEW were conducted using a 128-well diet tray assay. One to five second instar CEW larvae were placed in each well (3 mL) of the diet tray that had been previously filled with 1 mL of artificial diet to which 50 μg/cm^2 of the test compound (dissolved in 50 μL of 90:10 acetone-water mixture) had been applied (to each of eight wells) and then allowed to dry. Trays were covered with a clear self-adhesive cover and held at 25° C., 14:10 light-dark for five to seven days. Percent mortality was recorded for the larvae in each well; activity in the eight wells was then averaged. The results are indicated in the table entitled “Table 5: Biological Results” (See Table Section).

| Structure (SMILES) | pest or weed control at 50 µg/cm2, 50 µg/cm2 ([1]; Beet armyworm, 50 μg/cm^2) [%] | pest or weed control at 50 µg/cm2, 50 µg/cm2 ([2]; Corn earworm, 50 μg/cm^2) [%] | pest or weed control at 50 µg/cm2, 50 µg/cm2 [1] [%] | pest or weed control at 50 µg/cm2, 50 µg/cm2 [2] [%] |
| --- | --- | --- | --- | --- |
| CC(C)c1ccccc1N1/C(=N/N=C/c2ccc(-c3ncn(-c4ccc(OC(F)(F)F)cc4)n3)cc2)SCC1C (racemic) [Compound 155C] | 50 to 100 | 50 to 100 | – | – |
| COc1cc(C)c(N2C(=O)CSC2=NN=Cc2ccc(-c3ncn(-c4ccc(OC(F)(F)F)cc4)n3)cc2)c(C)c1 (stereo in doubt) [Compound 69C, (Z)-3-(4-methoxy-2,6-dimethylphenyl)-2-((E)-(4-(1-(4-(trifluoromethoxy)phenyl)-1H-1,2,4-triazol-3-yl)benzylidene)hydrazono)thiazolidin-4-one] | 50 to 100 | 50 to 100 | – | – |
| CC1CSC(=NN=Cc2ccc(-c3ncn(-c4ccc(OC(F)(F)F)cc4)n3)cc2)N(c2ccccc2C(C)C)C1 (stereo in doubt) [Compound 178C, (Z)-3-(2-isopropylphenyl)-5-methyl-2-((E)-(4-(1-(4-(trifluoromethoxy)phenyl)-1H-1,2,4-triazol-3-yl)benzylidene)hydrazono)-1,3-thiazinane] | 50 to 100 | 50 to 100 | – | – |
| CS/C(=N\c1ccc(N(C)C)cc1)N/N=C/c1ccc(-c2ncn(-c3ccc(OC(F)(F)F)cc3)n2)cc1 [Compound 1C, N-(4-dimethylaminophenyl)-S-methyl-2-{4-[1-(4-trifluoromethoxyphenyl)-1H-[1,2,4]-triazol-3-yl]-benzylidene}-hydrazine-carbothioamide] | 50 to 100 | 50 to 100 | – | – |
| CCS/C(=N\c1c(Cl)cccc1Cl)N/N=C/c1ccc(-c2ncn(-c3ccc(OC(F)(F)F)cc3)n2)cc1 [Compound 2C] | 50 to 100 | 50 to 100 | – | – |
| CCCS/C(=N\c1c(Cl)cccc1Cl)N/N=C/c1ccc(-c2ncn(-c3ccc(OC(F)(F)F)cc3)n2)cc1 [Compound 3C] | 50 to 100 | 50 to 100 | – | – |
| Cc1cccc(C)c1/N=C(/N/N=C/c1ccc(-c2ncn(-c3ccc(OC(F)(F)F)cc3)n2)cc1)SCc1ccc(C(=O)O)cc1 [Compound 6C] | 50 to 100 | 50 to 100 | – | – |
| Cc1cccc(C)c1/N=C(/N/N=C/c1ccc(-c2ncn(-c3ccc(OC(F)(F)F)cc3)n2)cc1)SCc1ccc(F)cc1F [Compound 7C] | – | 50 to 100 | – | – |
| Cc1cccc(C)c1/N=C(/N/N=C/c1ccc(-c2ncn(-c3ccc(OC(F)(F)F)cc3)n2)cc1)SCC#C[Si](C)(C)C [Compound 9C] | – | – | 50 to 100 | 50 to 100 |
| Cc1cccc(C)c1/N=C(/N/N=C/c1ccc(-c2ncn(-c3ccc(OC(F)(F)F)cc3)n2)cc1)SCc1ccccc1 [Compound 10C] | 50 to 100 | 50 to 100 | – | – |
| Cc1cccc(C)c1/N=C(/N/N=C/c1ccc(-c2ncn(-c3ccc(OC(F)(F)F)cc3)n2)cc1)SCc1ccccc1F [Compound 11C] | 50 to 100 | 50 to 100 | – | – |
| Cc1cccc(C)c1/N=C(/N/N=C/c1ccc(-c2ncn(-c3ccc(OC(F)(F)F)cc3)n2)cc1)SCc1ccc(C(F)(F)F)o1 [Compound 16C] | 50 to 100 | 50 to 100 | – | – |
| Cc1cccc(C)c1/N=C(/N/N=C/c1ccc(-c2ncn(-c3ccc(OC(F)(F)F)cc3)n2)cc1)SCc1c(-c2ccccc2)noc1C [Compound 20C] | 50 to 100 | 50 to 100 | – | – |
| Cc1cccc(C)c1/N=C(/N/N=C/c1ccc(-c2ncn(-c3ccc(OC(F)(F)F)cc3)n2)cc1)SCOC(=O)CNC(=O)OCc1ccccc1 [Compound 23C] | 50 to 100 | 50 to 100 | – | – |
| Cc1cccc(C)c1/N=C(/N/N=C/c1ccc(-c2ncn(-c3ccc(OC(F)(F)F)cc3)n2)cc1)SCOC(=O)C(C)C [Compound 25C] | 50 to 100 | 50 to 100 | – | – |
| Cc1cccc(C)c1/N=C(/N/N=C/c1ccc(-c2ncn(-c3ccc(OC(F)(F)F)cc3)n2)cc1)SCOC(=O)C(C)(C)C [Compound 36C] | 50 to 100 | 50 to 100 | – | – |
| COc1cc(C)c(/N=C(/N/N=C/c2ccc(-c3ncn(-c4ccc(OC(F)(F)C(F)(F)F)cc4)n3)cc2)SCOC(=O)C(C)C)c(C)c1 [Compound 37C] | 50 to 100 | 50 to 100 | – | – |
| COc1cc(C)c(/N=C(/N/N=C/c2ccc(-c3ncn(-c4ccc(OC(F)(F)F)cc4)n3)cc2)SCOC(=O)C(C)OCC(F)(F)F)c(C)c1 (stereo not drawn) [Compound 38C] | 50 to 100 | 50 to 100 | – | – |

| Structure (SMILES) | pest or weed control at 50 µg/cm2, 50 µg/cm2 ([1]; Beet armyworm, 50 μg/cm^2) [%] | pest or weed control at 50 µg/cm2, 50 µg/cm2 ([2]; Corn earworm, 50 μg/cm^2) [%] | pest or weed control at 50 µg/cm2, 50 µg/cm2 [1] [%] | pest or weed control at 50 µg/cm2, 50 µg/cm2 [2] [%] |
| --- | --- | --- | --- | --- |
| COCOCC(C)C(=O)OCS/C(=N\c1c(C)cccc1C)N/N=C/c1ccc(-c2ncn(-c3ccc(OC(F)(F)F)cc3)n2)cc1 (stereo not drawn) [Compound 41C] | 50 to 100 | 50 to 100 | – | – |
| COCOCC(C)C(=O)OCS/C(=N\c1c(C)cc(OC)cc1C)N/N=C/c1ccc(-c2ncn(-c3ccc(OC(F)(F)F)cc3)n2)cc1 (stereo not drawn) [Compound 42C] | 50 to 100 | 50 to 100 | – | – |
| COc1cc(C)c(/N=C(/N/N=C/c2ccc(-c3ncn(-c4ccc(OC(F)(F)F)cc4)n3)cc2)SCOC(=O)C2CCCO2)c(C)c1 (stereo not drawn) [Compound 44C] | 50 to 100 | 50 to 100 | – | – |
| COc1cc(C)c(/N=C(\N/N=C/c2ccc(-c3ncn(-c4ccc(C(F)(F)F)cc4)n3)cc2)SCOC(=O)CNC(=O)OCc2ccccc2)c(C)c1 [Compound 45C] | 50 to 100 | 50 to 100 | – | – |
| COc1cc(C)c(/N=C(\N/N=C/c2ccc(-c3ncn(-c4ccc(C(F)(F)F)cc4)n3)cc2)SCOC(=O)C(C)C)c(C)c1 [Compound 46C] | 50 to 100 | 50 to 100 | – | – |
| COc1cc(C)c(/N=C(/N/N=C/c2ccc(-c3ncn(-c4ccc(OC(F)(F)F)cc4)n3)cc2)SCC(=O)O)c(C)c1 [Compound 48C] | 50 to 100 | 50 to 100 | – | – |
| COc1ccc(/N=C(/N/N=C/c2ccc(-c3ncn(-c4ccc(OC(F)(F)C(F)(F)F)cc4)n3)cc2)SCC(=O)O)c(C)c1 [Compound 50C] | 50 to 100 | 50 to 100 | – | – |
| CC(/N=C(/N/N=C/c1ccc(-c2ncn(-c3ccc(OC(F)(F)F)cc3)n2)cc1)SCC(=O)O)c1ccccc1 (stereo not drawn) [Compound 54C] | 50 to 100 | 50 to 100 | – | – |
| Cc1cccc(C)c1/N=C(/N/N=C/c1ccc(-c2ncn(-c3ccc(OC(F)(F)F)cc3)n2)cc1)SCC(=O)NCC(C)C [Compound 55C] | 50 to 100 | 50 to 100 | – | – |
| Cc1cccc(C)c1/N=C(/N/N=C/c1ccc(-c2ncn(-c3ccc(OC(F)(F)F)cc3)n2)cc1)SCC(=O)NC[C@@H]1CCCN(C(=O)OC(C)(C)C)C1 [Compound 56C, (S)-tert-butyl 3-((2-((Z)-(2,6-dimethylphenylimino)-((E)-2-(4-(1-(4-(trifluoromethoxy)phenyl)-1H-1,2,4-triazol-3-yl)benzylidene)hydrazinyl)-methylthio)acetamido)methyl)piperidine-1-carboxylate] | 50 to 100 | 50 to 100 | – | – |
| COc1cc(C)c(/N=C(/N/N=C/c2ccc(-c3ncn(-c4ccc(OC(F)(F)F)cc4)n3)cc2)SCC(=O)NCCCNC(=O)OC(C)(C)C)c(C)c1 [Compound 60C] | 50 to 100 | 50 to 100 | – | – |
| Cc1cccc(C)c1/N=C(/N/N=C/c1ccc(-c2ncn(-c3ccc(OC(F)(F)F)cc3)n2)cc1)SCC(=O)NCCCN(C)C(=O)OC(C)(C)C [Compound 61C] | 50 to 100 | 50 to 100 | – | – |
| Cc1cccc(C)c1/N=C(/N/N=C/c1ccc(-c2ncn(-c3ccc(OC(F)(F)F)cc3)n2)cc1)SCC(=O)NCC(N)C(=O)O (stereo not drawn) [Compound 63C] | 50 to 100 | 50 to 100 | – | – |
| COc1cc(C)c(/N=C(/N/N=C/c2ccc(-c3ncn(-c4ccc(OC(F)(F)F)cc4)n3)cc2)SCC(=O)NCCCN)c(C)c1 [Compound 64C] | 50 to 100 | 50 to 100 | – | – |
| CCOc1cccc(OCC)c1N1C(=O)CS/C1=N\N=C\c1ccc(-c2ncn(-c3ccc(OC(F)(F)F)cc3)n2)cc1 [Compound 98C] | 50 to 100 | – | – | – |
| COc1ccc(N2C(=O)CS/C2=N\N=C\c2ccc(-c3ncn(-c4ccc(OC(F)(F)F)cc4)n3)cc2)cc1 [Compound 115C] | 0 to 50 | – | – | – |
| FC(F)(F)Oc1ccc(-n2cnc(-c3ccc(/C=N/N=C4\SCCN4c4ccccc4OC(F)(F)F)cc3)n2)cc1 [Compound 153C] | – | 50 to 100 | – | – |
